# Measurements published in paper PMC12040169 (PLOS Biology, 2025).
# Experiment: in vitro
# Conditions: human, hela cells, % viability
row,Structure (SMILES),"viability at 28.5 h, 10 µM [%]"
1,Cn1nc(C2CCN(C(=O)Cc3ccsc3)CC2)c2cccnc21 [CBK284986],101
2,COc1ccc(NC(=S)N2CCN(C/C=C/c3ccccc3)CC2)cc1OC [CBK266891],88.7
3,COc1ccc(S(=O)(=O)N(C)c2ccc(C(=O)NCc3ccccn3)cc2)cc1 [CBK269099],88.1
4,C#CCNS(=O)(=O)c1ccc(C(=O)Nc2ccnn2Cc2ccccc2)cc1 [CBK297727],96.4
5,CC1(C)CC(=O)c2sc(NC(=O)c3ccc4ncccc4c3)nc2C1 [CBK144105],92.2
6,COc1ccc(-n2c(=O)[nH]cc(C(=O)N3CCc4ccccc43)c2=O)cc1OC [CBK287555],105
7,Cc1ccc(-c2nc3ccccc3[nH]2)cc1NC(=O)CCCc1ccccc1 [CBK265789],92.9
8,CCCCOc1ccc(S(=O)(=O)N2CCN(c3cccc(C)c3C)CC2)cc1 [CBK099293],114
9,COc1cc(CNCCO)ccc1OCc1cccc(Cl)c1 [CBK270013C],94.5
10,Cc1noc(C)c1C(=O)N1CCOCC1 [CBK057765],80.5
11,CCOC(=O)C1(C2CCCCC2)CCN(C(=O)C(c2ccccc2)c2ccccc2)CC1 [CBK136943],106
12,CCc1nnc2sc(-c3ccc(C)c(NC(=O)c4ccc(N5CCCCC5)c([N+](=O)[O-])c4)c3)nn12 [CBK268476],91.5
13,Clc1ccc(CN2CCN(c3nccnc3OCCN3CCOCC3)CC2)cc1Cl [CBK082884T],96.7
14,CCc1nc(C(C)NCC(=O)Nc2cc(C)nn2C)cs1 (stereo not shown) [CBK305118],97.8
15,O=C(O)CCCN1C(=O)/C(=C/c2ccccc2[N+](=O)[O-])SC1=S [CBK262801],90.4
16,CSc1nc(O)c(C(c2ccc(Cl)cc2)c2c(O)nc(SC)nc2O)c(O)n1 [CBK265306],105
17,CCCC(=O)c1ccc(S(=O)(=O)N2CCCN(Cc3c[nH]nc3-c3ccc(F)cc3)CC2)cc1 [CBK062911],121
18,CN1CCN(c2nccnc2-c2cccnc2)CC1 [CBK036612],89.8
19,Cc1cc(NS(=O)(=O)c2csc3ccccc23)n(C)n1 [CBK067251],89.5
20,NNC(=O)CCc1ccccc1O [CBK261214],97.2
21,COCCNC(=O)c1ccc(-c2cccc(Cl)c2Cl)nc1N(C)C [CBK106057],89.4
22,Cc1cc(NC(=O)COc2ccc(Cl)cc2)nc2c1c(=O)oc1ccccc12 [CBK291230],92.9

row,Structure (SMILES),"viability at 28.5 h, 10 µM [%]"
1,Cc1cc(C(=O)NC(Cn2ccnc2)c2ccccc2)cc(=O)[nH]1 (stereo not shown) [CBK306818],94
2,Cc1cc(C2CCCCCN2C(=O)c2ccccc2F)on1 (stereo not shown) [CBK284842],94.5
3,O=C(Cc1cn2ccsc2n1)Nc1ccc(N2CCCCC2)cc1 [CBK306185],79
4,COC(=O)CNC(c1ccccc1)c1cc(Br)ccc1N (stereo not shown) [CBK019222],96.8
5,CCn1c(-c2ccc(C)cc2)cnc1SCC(=O)N1CCN(C(C)=O)CC1 [CBK296925],110
6,CCCc1ccc(S(=O)(=O)NCC(=O)OCC)cc1 [CBK034429],113
7,O=C1CCC(=O)N1CCOc1nccnc1N1CCN(CC2CCCCC2)CC1 [CBK084306],88.9
8,O=C(O)c1cc(C(=O)O)cc(N2C(=O)c3ccc(-c4ccc5c(c4)C(=O)N(c4cc(C(=O)O)cc(C(=O)O)c4)C5=O)cc3C2=O)c1 [CBK261331],96.6
9,CC(C)n1c(=O)n(CC(=O)NCCc2ccccc2)c2cccnc21 [CBK283701],94.8
10,O=C(O)CSc1nnc(-c2ccncc2)n1-c1ccc(Cl)cc1 [CBK266686],92.1
11,Cc1ccccc1C1(O)CCN(CC(O)c2ccccc2)CC1 (stereo not shown) [CBK282491],83.7
12,CC(=O)N1CCC2(CCCC[C@H]3CN(C(=O)CCC(C)C)CC[C@@H]3NC(=O)CNC2=O)CC1 [CBK292124],103
13,Cc1nc(C)c(C(C)NCc2c(C(C)C)nn(C)c2N(C)C)s1 (stereo not shown) [CBK304005],74.3
14,O=C(C1=C(O)C(=O)N(CCCn2ccnc2)C1c1ccccc1)c1cccs1 (stereo not shown) [CBK264484],110
15,COc1ccc(-c2csc(Nc3ccc(S(=O)(=O)Nc4cc(C)on4)cc3)n2)cc1OC [CBK261797B],95.3
16,CCCNC(=O)CN1CCC(NC(=O)Cn2cc(Br)ccc2=O)CC1 [CBK305665],94
17,O=C(Cn1ncc2cccn2c1=O)OCC(F)(F)F [CBK283554],93.7
18,CC(C)N(CC(=O)N(c1ccccc1)c1ccccc1)C(C)C [CBK013303C],96.6
19,c1ccc(-c2nn3c(Cn4nnc5ccccc54)nnc3s2)cc1 [CBK268271],106
20,CN(Cc1ccccc1)C1(O)C(=O)Nc2ccc(Cl)cc21 (stereo not shown) [CBK269703],95.9
21,O=C(O)c1ccc2c(c1)CCN2S(=O)(=O)c1ccc(S(=O)(=O)N2CCOCC2)cc1 [CBK295625],97.1
22,O=C(Nc1ccc2c(c1)CS(=O)(=O)C2)c1cccs1 [CBK057563],113

row,Structure (SMILES),"viability at 28.5 h, 10 µM [%]"
1,COc1cccc2sc(Nc3nc(-c4cccnc4)cs3)nc12 [CBK287470],98.5
2,COc1ccc(S(=O)(=O)N2CCN(Cc3ccc4c(c3)OCO4)CC2)c2ccccc12 [CBK074521],96.4
3,Cn1nnnc1SCC(=O)Nc1cc(F)ccc1F [CBK057872],79.9
4,Cc1ccc(C(=O)C2CCN(S(=O)(=O)c3ccc(Cl)c(Cl)c3)CC2)cc1 [CBK019294],106
5,COc1ccc(CCC(=O)NCC(c2cccs2)N2CCOCC2)cc1 (stereo not shown) [CBK304674],107
6,O=C(NC(=S)Nc1ccc(N2CCN(Cc3ccccc3F)CC2)cc1)c1ccco1 [CBK268946],92.6
7,Cc1ccc(CN(CCCn2ccnc2)Cc2ccncc2)o1 [CBK283101],108
8,CCNC(=O)Nc1ccc2ccc(-c3ccc(SC)cc3)nc2n1 [CBK070656],90.9
9,Cc1nc(C)c(C(=O)NCCN2CCCC2=O)s1 [CBK282222],84.2
10,O=C(NC1CCCCC1)NS(=O)(=O)c1ccc(CCNC(=O)c2cccs2)cc1 [CBK011888],86.3
11,O=C(Nc1ccc2[nH]c(C3CCCCC3)nc2c1)C1CCCCC1 [CBK020680],87.7
12,COc1cccc(C2(O)CCCC3CN(C(C)=O)CC32)c1 (stereo not shown) [CBK283242],80.8
13,O=C(O)c1cccc(NS(=O)(=O)c2ccc(CNC(=O)c3ccc(Cl)cc3)s2)c1 [CBK155085],104
14,CCC(CN1CCN(C)CC1)NC(=O)Cc1ccc2c(c1)CCC2 (stereo not shown) [CBK282784],92.2
15,COc1ccc([C@H]2CN(C(C)=O)[C@@H]3CCN(CC4CC4)C[C@H]23)cc1 [CBK285502],98.1
16,Cc1ccc2c(c1)cc(C)c1nn(CC(=O)NC(C)(C)C)c(=O)n12 [CBK283875],87.5
17,O=C(NCCc1c[nH]c2ccc(Cl)cc12)c1ccc(Cl)cc1Cl [CBK159750],105
18,CC12CN3CC(C)(CN(C1)C3c1ccc(Br)cc1)C2=O (stereo not shown) [CBK261452],92.1
19,OC1(c2cccnc2)C2CCCC1CN(Cc1cccc(F)c1F)C2 (stereo not shown) [CBK285205],88.1
20,O=C(OCc1ccc(S(=O)(=O)c2ccccc2)cc1)c1cc(O)nc2ccccc12 [CBK266782],93.1
21,O=S(=O)(O)c1cc(O)c2c(/N=N/c3c(S(=O)(=O)O)cc4cc(S(=O)(=O)O)cc(O)c4c3O)cc(S(=O)(=O)O)cc2c1 [CBK260934],102
22,Cc1nc2ncc(-c3ccccc3C(=O)N(C(C)C)C(C)C)cn2n1 [CBK307054],84.1

row,Structure (SMILES),"viability at 28.5 h, 10 µM [%]"
1,O=C(NCCc1nc2ccccc2[nH]1)c1cccs1 [CBK020529],99.4
2,O=C(O)c1cc(NS(=O)(=O)c2ccc(N3CCCCC3)c([N+](=O)[O-])c2)cc(C(=O)O)c1 [CBK263876],101
3,CC(C)C(=O)NC1CCN(C(=O)CCn2ccc3ccncc32)CC1 [CBK284730],98
4,CN1CCN(CCC(=O)N/N=C/c2ccccn2)CC1 [CBK261501],114
5,c1coc(CNc2cncc(-c3cccs3)n2)c1 [CBK065630],96.6
6,O=c1c2ccccc2[nH]c(=S)n1CCCN1CCC(Cc2ccccc2)CC1 [CBK267952],86.2
7,C(=N\c1cccc2c(/N=C/c3c[nH]c4ccccc34)cccc12)/c1c[nH]c2ccccc12 [CBK260887],95.8
8,O=C(CCc1cccnc1)NC1Cc2ccccc2C1 [CBK200352],97.4
9,OC(CNCc1ccc2c(c1)OCO2)COc1ccc(Cl)c(Cl)c1 (stereo not shown) [CBK074649],89.3
10,Cc1ccc(C2(O)CCN(Cc3c(C)nc4sccn34)CC2)cc1 [CBK282734],85.8
11,CCn1ncc(Br)c1C(=O)Nc1ccc(Cl)cn1 [CBK265826],94.8
12,O=C(Cc1ccc(F)cc1)Nc1cccc(-c2noc(-c3ccc(F)cc3)n2)c1 [CBK299821],89
13,COc1cncc(-c2cnc3[nH]c(=O)n([C@H](CO)C(C)C)c3n2)c1 [CBK064977],107
14,O=[N+]([O-])c1ccc(Oc2cccc3cccnc23)c(C(F)(F)F)c1 [CBK002739],80.6
15,Cc1cc(C)n(CCCn2cncc2-c2cnn(C)c2)n1 [CBK281771],84.9
16,O=C(NCCN1CCC(O)(c2cccc(F)c2)CC1)C1CC=CCC1 (stereo not shown) [CBK282451],101
17,Cc1cc(C(=O)CSc2nccc(C(F)(F)F)n2)c(C)n1C1CC1 [CBK305238],80
18,COc1cc(CN2CCN(Cc3ccncc3)CC2)cc(OC)c1O [CBK263401],80.6
19,CCOc1ncccc1NC(=O)N(CC1CCOC1)C1CC1 (stereo not shown) [CBK305077],94
20,Cc1cccc(-c2ccc(CC3(C(=O)NC(C)C)CCN(C(=O)C(C)(C)C)CC3)cc2)c1 [CBK285758],96.2

# Same assay, conditions: human, hela cells, % viability, bulk resorufin, single well
row,Structure (SMILES),"viability at 28.5 h, 10 µM [%]"
1,CSc1cc(C)c2c(c1)COC1(CCN(C(=O)c3ccccc3C(=O)O)CC1)O2 [CBK060843],94.1
2,O=c1[nH]c(=S)[nH]c(O)c1CN1CCOCC1 [CBK262493],98.7
